Data reported in patent US5087704A, “Cyanine compounds” (Asahi Chemical Co., Ltd., priority 1988, dated 1992).

Experiments:
[1] = Wavelength at maximum absorption and molar absorptivity of the cyanine compounds; type: physicochemical
Solubility in solvent = type: physicochemical; conditions: diacetone alcohol, room temperature
Protocol: Each of cyanine dyes as shown below in Table 2 was dissolved in diacetone alcohol and the solubility was measured at room temperature.

SMILES | molar absorptivity (ε) [1] | wavelength at maximum absorption (λmax) ([1]; methanol) | Solubility (g/l) (Solubility in solvent) | Solubility (Solubility in solvent) | wavelength at maximum absorption (λmax) ([1]; diacetone alcohol) | wavelength at maximum absorption (λmax) ([1]; solvent not given)
CCCCN1C(=CC=CC=CC2=[N+](CCCC)c3cc4c(cc3C2(C)C)OCO4)C(C)(C)c2cc3c(cc21)OCO3 [Preparation Example 1] | 176000 L/mol/cm | 696 nm | At least 30 g/l | – | – | –
CCN1C(=CC=CC=CC2=[N+](CC)c3cc4c(cc3C2(C)C)OCO4)C(C)(C)c2cc3c(cc21)OCO3 [Preparation Example 2] | – | 694 nm | – | 30 mg/mL | – | –
COCCN1C(=CC=CC=CC=CC2=[N+](CCOC)c3cc4c(cc3C2(C)C)OCO4)C(C)(C)c2cc3c(cc21)OCO3 [Preparation Example 3] | – | 793 nm | – | – | – | –
CCCCN1C(=CC=CC=CC2=[N+](CCCC)c3cc4c(cc3C2(C)C)OC(C)C4)C(C)(C)c2cc3c(cc21)CC(C)O3 (centres unmarked) [Preparation Example 4] | 194000 L/mol/cm | – | At least 30 g/l | – | 695 nm | –
CCCCN1C(=CC=CC=CC2=[N+](CCCC)c3cc4c(cc3C2(C)C)CC(C)O4)C(C)(C)c2cc3c(cc21)OC(C)C3 (centres unmarked) [Preparation Example 5] | 190000 L/mol/cm | – | At least 30 g/l | – | 688 nm | –
CCCCN1C(=CC=CC=CC2=[N+](CCCC)c3cc4c(cc3C2(C)C)CCC4)C(C)(C)c2cc3c(cc21)CCC3 [Preparation Example 6] | 224000 L/mol/cm | – | – | – | 670 nm | –
CCOCCN1C(=CC=CC=CC2=[N+](CCOCC)c3cc4c(cc3C2(C)C)CCC4)C(C)(C)c2cc3c(cc21)CCC3 [Preparation Example 7] | 220000 L/mol/cm | – | – | 30 mg/mL | 672 nm | –
CC(=O)OCCN1C(=CC=CC=CC=CC2=[N+](CCOC(C)=O)c3cc4c(cc3C2(C)C)CCC4)C(C)(C)c2cc3c(cc21)CCC3 [Preparation Example 8] | 228000 L/mol/cm | – | – | – | – | 768 nm
COCCN1C(=CC=CC=CC=CC2=[N+](CCOC)c3cc4c(cc3C2(C)C)CCC4)C(C)(C)c2cc3c(cc21)CCC3 [Preparation Example 9] | – | – | – | – | – | 768 nm
CC1(C)C(=CC=CC=CC2=[N+](CCO)c3cc4c(cc3C2(C)C)OCO4)N(CCO)c2cc3c(cc21)OCO3 [Preparation Example 10] | – | – | At least 30 g/l | – | 695 nm | –
CC1(C)C(=CC=CC=CC=CC2=[N+](CCS(=O)(=O)O)c3cc4c(cc3C2(C)C)OCO4)N(CCS(=O)(=O)O)c2cc3c(cc21)OCO3 [Preparation Example 11] | 160000 L/mol/cm | 790 nm | – | – | – | –
CCCCN1C(=CC=CC=CC=CC2=[N+](CCCC)c3cc4c(cc3C2(C)C)OC(C)C4)C(C)(C)c2cc3c(cc21)CC(C)O3 (centres unmarked) [Preparation Example 12] | 193000 L/mol/cm | 795 nm | – | – | – | –
